Entries after “also recorded” stand apart in the source; their conditions may differ.
Experiments:
platelets [1] = experiment: platelet aggregation caused by platelet activating factor (PAF); assay type: cell-based
From the text: (§1) PAF is a local mediator of thrombosis. Similarly, collagen exposure of vessel walls leads to the formation of […] clot in the vessels. Therefore, prevention of the formation of blood clots has direct implication in the treatment of thrombosis and associated cardiovascular diseases.
(§2) PAF and collagen were used at their maximal concentrations which induced 100% aggregation of platelets.

[2] = tested on: allergen-induced challenge; experiment: relative potencies of different isomers of contignasterol against allergen-induced challenge
From the text: Table 4 illustrates the relative potencies of different isomers of contignasterol against allergen-induced challenge.

tracheal tissues = experiment: ovalbumine (antigen)-induced contraction of tracheal tissues from sensitized guinea pigs; assay type: cell-based, guinea pig; conditions: antigen ovalbumine (OA)
From the text: We have used the contignasterol as defined in paragraph one of the Summary to block bronchoconstriction induced in guinea pigs. Guinea pigs were sensitized to ovalbumine (OA) that can serve as an antigen. The trachea from these animals after exposure to the antigen (OA) contracted in a similar manner as to in vivo situation.

platelets [3] = experiment: platelet aggregation caused by collagen; assay type: cell-based
From the text: as §1, §2

rat mast cells = conditions: induced by anti-IgE; cited from earlier work

CC(C)C1CC(O)OC([C@@H](C)[C@H]2CC(=O)[C@@H]3[C@@H]4[C@@H](O)[C@H](O)[C@H]5[C@@H](O)[C@H](O)CC[C@]5(C)[C@H]4CC[C@]23C)C1 (some centres unmarked) [Compound 1, contignasterol]
aggregation of platelets caused by PAF (in words) (platelets [1]): inhibited aggregation of platelets
inhibition at 10 µM [2]: 43%
contraction of trachea pretreated with contignasterol after exposure to antigen (in words) (tracheal tissues): did not significantly contract; also recorded: inhibited airway smooth muscle contraction
aggregation of platelets caused by collagen (in words) (platelets [3]): inhibited aggregation of platelets

CC(C)C1CC(O)OC([C@@H](C)[C@H]2CC(=O)[C@H]3[C@@H]4[C@@H](O)[C@H](O)[C@H]5[C@@H](O)[C@H](O)CC[C@]5(C)[C@H]4CC[C@]23C)C1 (some centres unmarked) [Compound 2, 14-epicontignasterol]
inhibition at 10 µM [2]: 25%

COC1CC(C(C)C)CC([C@@H](C)[C@H]2CC(=O)[C@@H]3[C@@H]4[C@@H](O)[C@H](O)[C@H]5[C@@H](O)[C@H](O)CC[C@]5(C)[C@H]4CC[C@]23C)O1 (some centres unmarked) [Compound 3, Methyl-acetal Contignasterol]
inhibition at 10 µM [2]: 12%

CC(C)C[C@]1(O)C[C@@H](C)[C@H]2[C@@H]1C(=O)[C@@H]1[C@@H]3[C@@H](O)[C@H](O)[C@H]4C[C@H](O)CC[C@]4(C)[C@H]3CC[C@]21C [xestobergsterol A, 23S-16β, 23-cyclo-3α, 6α, 7β, 23-tetrahydroxy-5α, 14β-cholestan-15-one]
inhibition of histamine release from rat mast cells (in words) (rat mast cells): potent inhibitors of histamine release

CC(C)C[C@]1(O)C[C@@H](C)[C@H]2[C@@H]1C(=O)[C@@H]1[C@@H]3[C@@H](O)[C@H](O)[C@H]4C[C@H](O)[C@@H](O)[C@@H](O)[C@]4(C)[C@H]3CC[C@]21C [xestobergsterol B, 23S-16β, 23-cyclo-1β, 2β, 3α, 6α, 7β, 23-hexahydroxy-5α, 14β-cholestan-15-one]
inhibition of histamine release from rat mast cells (in words) (rat mast cells): potent inhibitors of histamine release

Source: US5646138A, “Contignasterol compounds and pharmaceutical compositions comprising the same” (University of British Columbia, priority 1992, dated 1997)
